These are literature values, as cited in patent US20130137781A1, “PHARMACEUTICAL PREPARATION FOR CONTROLLING WATER-SOLUBLE DRUG RELEASE” (priority 2010, published 2013).

For data set [1] the following is noted: common logarithm of n-octanol/water partition coefficient.

Turning to `N[C@@H](Cc1ccccc1)C(=O)O` [L-phenylalanine], in data set [1], the “Log P” value is reported as −1.5. With `N[C@H](C(=O)O)[C@H](O)c1ccc(O)c(O)c1` [droxidopa], the “thermal stability in solution state” value is on record as “thermally unstable in solution state”. Moreover, the log partition coefficient (Log P) in data set [1] is reported as −3.2. Turning to `NS(=O)(=O)Cc1noc2ccccc12` [zonisamide], in data set [1], the log partition coefficient (Log P) is recorded as 0.2.

In general, Log P refers to the decadic logarithm of the partition coefficient of the neutral form, usually between octanol and water.
